Experimental data: US11021481B2, “Substituted isoindolin-1-ones and 2,3-dihydro-1h-pyrrolo[3,4-c]pyridin-1-ones as HPK1 antagonists” (Nimbus Saturn, Inc., priority 2019, dated 2021)
Structures can show the parent of a compound that is named as a salt.

Biological target: HPK1 (Homo sapiens (Human), UniProt Q92918)
Assay: HPK1 biochemical enzyme assay (microfluidic mobility shift assay)
Conditions: 1.5 nM HPK1, ATP 1 mM final, 30 min preincubation, 60 min at RT, Caliper EZ Reader; read-out: HPK1 1000UMATP caliper IC50
Outline: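 Ten-point compound titrations (top 3 μM final) preincubated 30 min with HPK1 and substrate, then reaction started with 1 mM ATP and 1 μM substrate, 5 mM MgCl2. After 60 min at RT, reaction terminated and product measured by microfluidic mobility shift.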

HPK1, sequence (Q92918 whole entry): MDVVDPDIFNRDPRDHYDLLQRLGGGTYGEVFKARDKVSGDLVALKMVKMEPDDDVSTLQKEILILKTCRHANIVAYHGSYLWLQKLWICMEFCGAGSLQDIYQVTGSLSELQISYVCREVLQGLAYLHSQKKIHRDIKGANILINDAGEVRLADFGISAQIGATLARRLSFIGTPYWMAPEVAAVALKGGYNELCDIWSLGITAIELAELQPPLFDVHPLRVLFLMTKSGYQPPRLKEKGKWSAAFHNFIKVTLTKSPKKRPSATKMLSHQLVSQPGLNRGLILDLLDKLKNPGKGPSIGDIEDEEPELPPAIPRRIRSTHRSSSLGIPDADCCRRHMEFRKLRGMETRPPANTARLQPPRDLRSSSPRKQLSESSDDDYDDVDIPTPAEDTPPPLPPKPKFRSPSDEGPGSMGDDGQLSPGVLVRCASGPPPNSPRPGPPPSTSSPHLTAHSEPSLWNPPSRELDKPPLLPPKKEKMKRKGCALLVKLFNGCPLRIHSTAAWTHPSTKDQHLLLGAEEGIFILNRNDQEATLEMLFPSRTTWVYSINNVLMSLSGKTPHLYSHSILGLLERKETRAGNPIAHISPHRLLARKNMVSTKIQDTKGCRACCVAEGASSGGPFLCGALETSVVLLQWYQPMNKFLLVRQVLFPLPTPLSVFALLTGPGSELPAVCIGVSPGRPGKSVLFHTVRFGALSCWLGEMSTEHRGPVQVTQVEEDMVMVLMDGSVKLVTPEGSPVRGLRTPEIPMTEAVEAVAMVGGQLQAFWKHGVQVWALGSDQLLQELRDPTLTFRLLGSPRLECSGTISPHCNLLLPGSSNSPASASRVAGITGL

| IC50 [µM] | Compound |
| --- | --- |
| < 0.1 | CN(Cc1nc(Nc2ccc(-c3cnc4cc(F)ccn34)c3c2C(=O)NC3)ccc1[C@H]1CCOC1)C1COC1 [I-743, (R)-4-(7-fluoroimidazo [1,2-a]pyridin-3-yl)-7-((6-((methyl(oxe-tan-3-yl)amino)meth-yl)-5-(tetrahydrofuran-3-yl)pyridin-2-yl)amino)isoin-dolin-1-one] |
| < 0.1 | CN1CCN(c2ccc(Nc3cnc(-c4ccnc5c4ccn5C)c4c3C(=O)NC4)nc2)CC1 [I-18, 7-[[5-(4-methylpiperazin-1-yl)-2-pyridyl]amino]-4-(1-methylpyrrolo [2,3-b]pyridin-4-yl)-2,3-dihydropyrrolo [3,4-c]pyridin-1-one] |
| < 0.1 | N#Cc1ccn2c(-c3ccc(Nc4ccc(N5CCC(O)CC5)cn4)c4c3CNC4=O)cnc2c1 [I-182, 3-[7-[[5-(4-hydroxy-1-piperidyl)-2-pyridyl]amino]-1-oxo-isoindolin-4-yl]imidazo[1,2-a]pyridine-7-carbonitrile] |
| < 0.1 | O=C1NCc2c(-c3cnc4cc(F)ccn34)ccc(Nc3ccc(N4CCC[C@@](O)(CN5CCOCC5)C4)cn3)c21 [I-656, (R)-4-(7-fluoroimidazo [1,2-a]pyridin-3-yl)-7-((5-(3-hydroxy-3-(morpholinomethyl)piperidin-1-yl)pyridin-2-yl)amino)isoin-dolin-1-one] |
| < 0.1 | O=C1NCc2c(-c3cnc4cc(F)ccn34)ccc(Nc3ccc([C@H]4CCOC4)c(CN4CCC4)n3)c21 [I-756, (R)-7-((6-(azetidin-1-ylmethyl)-5-(tetrahydrofuran-3-yl)pyridin-2-yl)amino)-4-(7-fluoroimidazo [1,2-a]pyridin-3-yl)isoindolin-1-one] |
| < 0.1 | O=C1NCc2c(-c3cnc4cnccn34)ccc(Nc3ccc(N4CCCC(O)CC4)cn3)c21 (stereo not shown) [I-301, 7-((5-(4-hydroxyaze-pan-1-yl)pyridin-2-yl)amino)-4-(imidazo[1,2-a]pyrazin-3-yl)isoindolin-1-one] |
| < 0.1 | COCC1CN(c2ccc(Nc3ccc(-c4ncnc5c4ccn5C)c4c3C(=O)NC4)nc2)CCO1 (stereo in doubt) [I-649, (R)-7-((5-(2-(methylmeth-yl)morpho-lino)pyridin-2-yl)amino)-4-(7-methyl-7]-4-pyrrolo[2,3-d]pyrimidin-4-yl)isoindolin-1-one] |
| < 0.1 | Cn1ccc2c(-c3ncc(Nc4ccc(N5CCC[C@H](C(C)(C)O)C5)cn4)c4c3CNC4=O)cccc21 [I-216, 7-[[5-[(3S)-3-(1-hydroxy-1-methyl-ethyl)-1-piperidyl]-2-pyridyl]-amino]-4-(1-methylindol-4-yl)-2,3-dihydropyrrolo [3,4-c]pyridin-1-one] |
| < 0.1 | O=C1NCc2c(-c3cnc4cc(F)ccn34)ccc(Nc3ccc(N4CCC(CO)CC4)cn3)c21 [I-204, 4-(7-fluoroimidazo [1,2-a]pyridin-3-yl)-7-[[5-[4-(hydroxymeth-yl]-1-piperipyl]-2-pyripyl]-amino]isoin-dolin-1-one] |
| < 0.1 | CO[C@@H]1CCN(Cc2nc(Nc3ccc(-c4cnc5cc(F)ccn45)c4c3C(=O)NC4)ccc2[C@H]2CCOC2)C1 [I-780, 4-(7-fluoroimidazo [1,2-a]pyridin-3-yl)-7((6-(((R)-3-methoxypyrrol-idin-1-yl)methyl)-5-((R)-tetraliydrofiiran-3-yl)pyridin-2-yl)amino)isoin-dolin-1-one] |
| < 0.1 | Cc1csc2c(-c3ncc(Nc4ccc(N5CCC(O)CC5)cn4)c4c3CNC4=O)ccnc12 [I-373, 7-((5-(4-hydroxypiperidin-1-yl)pyridin-2-yl)amino)-4-(3-methylthieno [3,2-b]pyridin-7-yl)-2,3-dihydro-1H-pyrrolo[3,4-c]pyridin-1-one] |
| < 0.1 | O=C1NCc2c(-c3cnc4ccccn34)ccc(Nc3ccc(N4CCNCC4)cn3)c21 [I-60, 4-imidazo[1,2-a]pyridin-3-yl-7-[(5-piperazin-1-yl-2-pyridyl)amino] isoindolin-1-one] |
| < 0.1 | CN(C)[C@@H]1COCCN(c2ccc(Nc3ccc(-c4cnc5cc(F)ccn45)c4c3C(=O)NC4)nc2)C1 [I-518, (S)-7-((5-(6-(dimethylami-no)-1,4-oxazepan-4-yl)pyridin-2-yl)amino)-4-(7-fluoroimidazo [1,2-a]pyridin-3-yl)isoindolin-1-one] |
| < 0.1 | Cn1ccc2c(-c3ccc(Nc4ccc(N5CCC[C@@H](C(C)(C)O)C5)cn4)c4c3CNC4=O)ccnc21 (single isomer, unassigned) [I-281] |
| < 0.1 | O=C1NCc2c(-c3cnc4cc(F)ccn34)ccc(Nc3ccc(N4CCO[C@H](CNC5CC5)C4)cn3)c21 [I-477, 7-[[5-[(2R)-2-[(cyclopropylamino)methyl]morpholin-4-yl]-2-pyridyl]amino]-4-(7-fluoroimidazo [1,2-a]pyridin-3-yl)isoindolin-1-one] |
| < 0.1 | CC(C)(c1ccc(Nc2ccc(-c3cnc4cc(F)ccn34)c3c2C(=O)NC3)nc1)N1CCOCC1 [I-747, 4-(7-fluoroimidazo [1,2-a]pyridin-3-yl)-7-((5-(2-morpholino-propan-2-yl)pyridin-2-yl)amino)isoin-dolin-1-one] |

| IC50 [µM] | Compound |
| --- | --- |
| < 0.1 | CC(C)([C@@H]1CN(c2ccc(Nc3ccc(-c4cnc5cc(F)ccn45)c4c3C(=O)NC4)nc2)CCO1)N1CC(O)C1 [I-697, (S)-4-(7-fluoroimidazo [1,2-a]pyridin-3-yl)-7-((5-(2-(2-(3-hydroxyazetidin-1-yl)propan-2-yl)morpholino)pyridin-2-yl)amino)isoin-dolin-1-one] |
| < 0.1 | CN(C)C1CCCc2ccc(Nc3ccc(-c4cnc5cc(F)ccn45)c4c3C(=O)NC4)nc21 (stereo not shown) [I-536, 7-[[8-(dimethylami-no)-5,6,7,8-tetrahydroquin-olin-2-yl]amino]-4-(7-fluoroimidazo [1,2-a]pyridin-3-yl)isoindolin-1-one Formic acid salt] |
| < 0.1 | CN(C)Cc1nc(Nc2cnc(-c3ccnc4[nH]ccc34)c3c2C(=O)NC3)ccc1[C@@H]1CCOC1 [I-766, (S)-7-((6-((dimethylamino)-methyl)-5-(tetrahydrofuran-3-yl)pyridin-2-yl)amino)-4-(1H-pyrrolo[2,3-b]pyridin-4-yl)-2,3-dihydro-1H-pyrrolo[3,4-c]pyridin-1-one] |
| < 0.1 | CN(C)Cc1nc(Nc2ccc(-c3cnc4cc(F)ccn34)c3c2C(=O)NC3)ccc1[C@@H]1CCN(C)C(=O)C1 [I-557, (R)-7-((6-((dimethylamino)-methyl)-5-(1-methyl-2-oxopiperidin-4-yl)pyridin-2-yl)amino)-4-(7-fluoroimidazo [1,2-a]pyridin-3-yl)isoindolin-1-one] |
| < 0.1 | CC(C)N(C)Cc1nc(Nc2ccc(-c3cnc4cc(F)ccn34)c3c2C(=O)NC3)ccc1C1CCOC1 (stereo in doubt) [I-729, (S)-4-(7-fluoroimidazo [1,2-a]pyridin-3-yl)-7-((6-((isopropyl(methyl)amino)methyl)-5-(tetrahydrofuran-3-yl)pyridin-2-yl)amino)isoin-dolin-1-one] |
| < 0.1 | O=C1NCc2c(-c3cnc4cnccn34)ccc(Nc3ccc(N4CC[C@@H](F)[C@H](O)C4)cn3)c21 [I-434, 7-((5-((3R,4R)-4-fluoro-3-hydroxypiperidin-1-yl)pyridin-2-yl)amino)-4-(imidazo[1,2-a]pyrazin-3-yl)isoindolin-1-one] |
| < 0.1 | O=C1NCc2c(-c3cnc4cc(F)ccn34)ccc(Nc3ccc([C@H]4CCOC4)c(CN4CCC4)n3)c21 [I-755, (R)-7-((6-(azetidin-1-ylmethyl)-5-(tetrahydrofuran-3-yl)pyridin-2-yl)amino)-4-(7-fluoroimidazo [1,2-a]pyridin-3-yl)isoindolin-1-one] |
| < 0.1 | CN1CCN(c2ccc(Nc3cnc(-c4c[nH]c5ncccc45)c4c3C(=O)NC4)nc2)CC1 [I-6, 7-((5-(4-Methylpiperazin-1-yl)pyridin-2-yl)amino)-4-(1H-pyrrolo[2,3-b]pyridin-3-yl)-2,3-dihydro-1H-pyrrolo[3,4-c]pyridin-1-one] |
| 0.1 to 1 | Cc1ccc2c(-c3ccc(Nc4ccc(N5CCN(C)CC5)cn4)c4c3CNC4=O)c[nH]c2c1 [I-23, 4-(6-methyl-1H-indol-3-yl)-7-[[5-(4-methylpiperazin-1-yl)-2-pyridyl]amino]isoindolin-1-one] |
| < 0.1 | CN1CCN(CC2(O)CCN(c3ccc(Nc4ccc(-c5cnc6ccccn56)c5c4C(=O)NC5)nc3)CC2)CC1 [I-403, 7-((5-(4-hydroxy-4-((4-methylpiperazin-1-yl)methyl)pip-eridin-1-yl)pyridin-2-yl)amino)-4-(imidazo[1,2-a]pyridin-3-yl)isoindolin-1-one] |
| < 0.1 | CC(C)(O)[C@H]1CCCN(c2ccc(Nc3ccc(-c4cnc5cc(F)ccn45)c4c3C(=O)NC4)nc2)C1 [I-213, 4-(7-fluoroimidazo [1,2-a]pyridin-3-yl)-7-[[5-[(3S)-3-(1-hydroxy-1-methyl-ethyl)-1-piperidyl]-2-pyridyl]amino] isoindolin-1-one] |
| > 1 | O=C1NCc2c(-c3cnc4ccc(C(F)(F)F)cn34)ccc(Nc3ccc(N4CCC(O)CC4)cn3)c21 [I-132] |
| < 0.1 | Cc1ccn2c(-c3ccc(Nc4ccc(N5CCO[C@@H](CO)C5)cn4)c4c3CNC4=O)cnc2c1F [I-460, 4-(8-fluoro-7-methyl-imidazo[1,2-a]pyridin-3-yl)-7-[[5-[(2R)-2-(hydroxymeth-yl)morpholin-4-yl]-2-pyridyl]amino] isoindolin-1-one] |
| < 0.1 | COCCN(C)c1ccc(Nc2ccc(-c3cnc4cc(F)ccn34)c3c2C(=O)NC3)nc1 [I-235, 4-(7-fluoroimidazo [1,2-a]pyridin-3-yl)-7-[[5-[2-methoxyethyl (methyl)amino]-2-pyridyl]amino] isoindolin-1-one] |
| < 0.1 | CN(C)C[C@@H]1CN(c2ccc(Nc3ccc(-c4cnc5cc(F)ccn45)c4c3C(=O)NC4)nc2)CCO1 [I-603, (R)-7-((5-(2-((dimethylamino)-methyl)mor-pholino)pyridin-2-yl)amino)-4-(7-fluoroimidazo [1,2-a]pyridin-3-yl)isoindolin-1-one] |
